Nine compounds from ChEMBL document CHEMBL1201862, “PubChem BioAssay data set” (2004) can be followed below.

Some test systems named below: U-251; NCI-H23; NCI-H522; SK-OV-3; NCI-H226; SF-539; HCT-15; CAKI-1; A549; SF-295; SNB-19; CCRF-CEM; MDA-N; UO-31; SK-MEL-2; K562; NCI/ADR-RES; MCF7; TK-10; HCC 2998.
Holding throughout (experiment): inhibition of tumour cell growth, NCI panel, 48 h

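1) Cells in 96-well plates. 2) Compound, 48 h, 5 concentrations. 3) Linear interpolation between surrounding doses. 4) Unreached endpoint = highest concentration. Abbreviation: GI50, concentration required for 50% inhibition of growth.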 Calls of active or inactive are those of the source. No stated cut-off is given here; in the data, active = GI50 up to about 1.1 µM and inactive = higher.

On to `CC(=O)N1N=C(N)CC1=O`, for which the GI50 with U-251, in the assay on NCI-H23, with NCI-H522, in the assay with SK-OV-3, with NCI-H226 and in the assay on SF-539 was > 100 µM (inactive) each time. Also, the GI50 in the assay with HCT-15 is greater than 100 µM; in the assay with CAKI-1, > 100 µM (inactive); with A549, > 100 µM (inactive); in the assay on SF-295 it was > 100 µM (inactive); with SNB-19, > 100 µM (inactive); in the assay with CCRF-CEM, > 100 µM (inactive). For the same compound, the GI50 with MDA-N, in the assay with UO-31, with SK-MEL-2, in the assay with K562, in the assay on NCI/ADR-RES and in the assay on MCF7 was > 100 µM (inactive) throughout. Also, the GI50 with TK-10 and in the assay on HCC 2998 was > 100 µM (inactive) in each case.

For the compound `CC1(Cc2cc3c(cc2C2(c4ccc([N+](=O)[O-])cc4)OCCO2)OCO3)OCCO1`, the GI50 with U-251 is 71.3 µM (inactive); in the assay on NCI-H23 it was 55.2 µM (inactive); with NCI-H522, 24.7 µM (inactive); with SK-OV-3, > 100 µM (inactive); in the assay with NCI-H226, 45 µM (inactive); in the assay on SF-539 it was > 100 µM (inactive). Moreover, the GI50 in the assay on HCT-15 is 51.1 µM; with CAKI-1, 63.5 µM (inactive); in the assay with A549, 43.8 µM (inactive); in the assay on SF-295, > 100 µM (inactive); in the assay with SNB-19, > 100 µM (inactive); with CCRF-CEM, 49.3 µM (inactive). Also, the GI50 with MDA-N was > 100 µM (inactive); with UO-31, 34.3 µM (inactive); in the assay on SK-MEL-2, 68.4 µM (inactive); in the assay on K562 it was 61.9 µM (inactive); with NCI/ADR-RES, 87.9 µM (inactive); in the assay with MCF7 it was 51.8 µM (inactive). The GI50 in the assay with TK-10 and in the assay on HCC 2998 was > 100 µM (inactive) in each case.

`Clc1nc(Cl)c(CBr)c(Cl)n1`: the GI50 was 4.06 µM (inactive) in the assay on U-251; 14.6 µM (inactive) with NCI-H23; 1.5 µM (inactive) with NCI-H522; 15.2 µM (inactive) in the assay on SK-OV-3; 8.45 µM (inactive) with NCI-H226; 2.99 µM (inactive) in the assay with SF-539. Besides, the GI50 in the assay with HCT-15 is 2.65 µM; in the assay on CAKI-1 it was 10.9 µM (inactive); in the assay on A549, 16 µM (inactive); with SF-295, 6.11 µM (inactive); with SNB-19, 16 µM (inactive); in the assay with CCRF-CEM it was 0.427 µM (active). Moreover, the GI50 in the assay with MDA-N was 3.25 µM (inactive); in the assay on UO-31, 3.33 µM (inactive); in the assay with SK-MEL-2, 8.65 µM (inactive); with K562 it was 2 µM (inactive); with NCI/ADR-RES it was 4.29 µM (inactive); with MCF7 it was 5.37 µM (inactive). Further, the GI50 is 4.7 µM (inactive) with TK-10 and 10.8 µM (inactive) in the assay with HCC 2998.

With `C/C(=N\Nc1nc2ccccc2[nH]1)c1cc2ccccc2cn1`, the GI50 in the assay with U-251 was 0.0318 µM (active); in the assay with NCI-H23, 0.0345 µM (active); in the assay with NCI-H522 it was < 0.0165 µM (active); with SK-OV-3, 0.0465 µM (active); in the assay on NCI-H226 it was 0.0382 µM (active); in the assay on SF-539 it was 0.1 µM (active). Moreover, the GI50 was less than 0.0106 µM in the assay with HCT-15; < 0.01 µM (active) in the assay with CAKI-1; 0.0775 µM (active) in the assay on A549; 0.166 µM (active) in the assay with SF-295; 0.277 µM (active) in the assay on SNB-19; < 0.01 µM (active) with CCRF-CEM. Moreover, the GI50 in the assay on MDA-N was 0.171 µM (active); in the assay with UO-31 it was 0.0115 µM (active); in the assay on SK-MEL-2, 0.508 µM (active); with K562, 0.0159 µM (active); with NCI/ADR-RES it was 0.0284 µM (active); in the assay on MCF7, < 0.01 µM (active). Further, the figures for the GI50 with TK-10 and in the assay on HCC 2998 were 0.122 µM (active) and 1.45 µM (inactive), respectively.

For the compound `O=C1CC(=O)c2c(N3CCCC3)sc(N3CCCC3)c21`, the GI50 in the assay on U-251 was > 100 µM (inactive); with NCI-H23, > 100 µM (inactive); in the assay on NCI-H522, 57.4 µM (inactive); in the assay with SK-OV-3 it was > 100 µM (inactive); in the assay on NCI-H226, > 100 µM (inactive); in the assay on SF-539 it was > 100 µM (inactive). Moreover, the GI50 in the assay with HCT-15 is greater than 100 µM; with CAKI-1 it was > 100 µM (inactive); in the assay with A549, > 100 µM (inactive); in the assay with SF-295, > 100 µM (inactive); in the assay on SNB-19 it was > 100 µM (inactive); in the assay with CCRF-CEM, 41.2 µM (inactive). For the same compound, the GI50 was > 100 µM (inactive) with MDA-N; > 100 µM (inactive) in the assay with UO-31; > 100 µM (inactive) in the assay with SK-MEL-2; 57.4 µM (inactive) in the assay with K562; > 100 µM (inactive) with NCI/ADR-RES; > 100 µM (inactive) in the assay on MCF7. The GI50 in the assay on TK-10 and with HCC 2998 was > 100 µM (inactive) throughout.

As for `CC(=O)OCC1OC(O[C@H]2C=C[C@@H](C(=O)OCc3ccccc3)n3c(=O)n(-c4ccccc4)c(=O)n32)C(OC(C)=O)C(OC(C)=O)C1OC(C)=O` (stereo not given in full), the GI50 is 2.14 µM (inactive) with U-251; 2.96 µM (inactive) in the assay with NCI-H23; 0.986 µM (active) in the assay with NCI-H522; 18.7 µM (inactive) with SK-OV-3; 4.55 µM (inactive) in the assay with NCI-H226; 1.82 µM (inactive) in the assay with SF-539. Moreover, the GI50 was 0.741 µM in the assay on HCT-15; 1.48 µM (inactive) in the assay with CAKI-1; 17.2 µM (inactive) in the assay with A549; 10.6 µM (inactive) in the assay with SF-295; 15.7 µM (inactive) with SNB-19; 0.851 µM (active) in the assay on CCRF-CEM. Further, the GI50 is 2.77 µM (inactive) with MDA-N; 1.57 µM (inactive) in the assay with UO-31; 4.66 µM (inactive) in the assay on SK-MEL-2; 1.63 µM (inactive) in the assay with K562; 3.2 µM (inactive) with NCI/ADR-RES; 1.17 µM (inactive) with MCF7. Besides, the GI50 in the assay with TK-10 is 2.02 µM (inactive); in the assay on HCC 2998, 1.73 µM (inactive).

`N#Cc1c2c(c(N)oc1=O)C(c1ccccc1)CC(=O)N2` (stereo not given): the GI50 in the assay with U-251, in the assay with NCI-H23, in the assay with NCI-H522, with SK-OV-3, in the assay on NCI-H226 and with SF-539 was > 100 µM (inactive) throughout. The GI50 in the assay on HCT-15 was greater than 100 µM; in the assay on CAKI-1 it was > 100 µM (inactive); in the assay with A549 it was > 100 µM (inactive); in the assay on SF-295, > 100 µM (inactive); with SNB-19 it was > 100 µM (inactive); in the assay on CCRF-CEM, > 100 µM (inactive). Besides, the GI50 with MDA-N, in the assay on UO-31, with SK-MEL-2, in the assay with K562, in the assay with NCI/ADR-RES and in the assay on MCF7 was > 100 µM (inactive) each time. In addition, the GI50 in the assay with TK-10 and in the assay on HCC 2998 was > 100 µM (inactive) each time.

On to `Nc1nc(Cl)c(N)c(NCC2(CO)CCC(CCc3ccccc3)C2)n1` (stereo not given), for which the GI50 is 14.4 µM (inactive) in the assay on U-251; 0.0435 µM (active) with NCI-H23; 10.4 µM (inactive) with NCI-H522; 22.3 µM (inactive) in the assay with SK-OV-3; 18.2 µM (inactive) in the assay on NCI-H226; 15.5 µM (inactive) with SF-539. Also, the GI50 is 16.1 µM in the assay with HCT-15; 1.47 µM (inactive) in the assay with CAKI-1; 11.8 µM (inactive) in the assay with A549; 10.6 µM (inactive) in the assay with SF-295; 25.7 µM (inactive) with SNB-19; 6.21 µM (inactive) in the assay on CCRF-CEM. Also, the GI50 was 15.2 µM (inactive) in the assay on MDA-N; 18.4 µM (inactive) in the assay on UO-31; 15.7 µM (inactive) in the assay with SK-MEL-2; 0.183 µM (active) in the assay with K562; > 39.5 µM (inactive) in the assay with NCI/ADR-RES; 7.59 µM (inactive) with MCF7. Also, the results for the GI50 with TK-10 and with HCC 2998 were 21.3 µM (inactive) and 16.9 µM (inactive), respectively.

As to `Br[Se]c1ccccn1`, the GI50 was 15.6 µM (inactive) in the assay on U-251; 20.7 µM (inactive) in the assay with NCI-H23; 16.4 µM (inactive) in the assay on NCI-H522; 20.5 µM (inactive) with SK-OV-3; 17.5 µM (inactive) in the assay with NCI-H226; 15.8 µM (inactive) with SF-539. Moreover, the GI50 with HCT-15 was 19 µM; with CAKI-1 it was 18.7 µM (inactive); with A549, 21.6 µM (inactive); in the assay on SF-295 it was 4.5 µM (inactive); with SNB-19, 12.4 µM (inactive); in the assay on CCRF-CEM, 27.6 µM (inactive). The GI50 in the assay with MDA-N is 17.7 µM (inactive); with UO-31 it was 17.1 µM (inactive); in the assay on SK-MEL-2, 16.4 µM (inactive); with K562, 24.8 µM (inactive); with NCI/ADR-RES it was 26.1 µM (inactive); in the assay with MCF7, 17.7 µM (inactive). The GI50 is 20.2 µM (inactive) with TK-10 and 21.1 µM (inactive) with HCC 2998.
